Experimental data reported in ChEMBL document CHEMBL1811766, “Structure-activity relationship studies of novel pyrazole and imidazole carboxamides as cannabinoid-1 (CB1) antagonists” (Bioorg Med Chem Lett, 2011).

What was measured:
Cannabinoid receptor 1 = Cannabinoid receptor 1 (Rattus norvegicus, UniProt P20272); experiment: Displacement of [3H]SR141716A from rat brain CB1 receptor at pH 7.4 after 1 hr by liquid scintillation counting
[1] = target: Cannabinoid receptor 2 (Homo sapiens) (UniProt P34972); experiment: Displacement of [3H]CP55940 from human cannabinoid CB2 receptor expressed in CHO cells at 1 uM at pH 7.4 after 1 hr by liquid scintillation counting; type: cell-based
Sequence of Cannabinoid receptor 2 (Homo sapiens) (P34972 whole entry): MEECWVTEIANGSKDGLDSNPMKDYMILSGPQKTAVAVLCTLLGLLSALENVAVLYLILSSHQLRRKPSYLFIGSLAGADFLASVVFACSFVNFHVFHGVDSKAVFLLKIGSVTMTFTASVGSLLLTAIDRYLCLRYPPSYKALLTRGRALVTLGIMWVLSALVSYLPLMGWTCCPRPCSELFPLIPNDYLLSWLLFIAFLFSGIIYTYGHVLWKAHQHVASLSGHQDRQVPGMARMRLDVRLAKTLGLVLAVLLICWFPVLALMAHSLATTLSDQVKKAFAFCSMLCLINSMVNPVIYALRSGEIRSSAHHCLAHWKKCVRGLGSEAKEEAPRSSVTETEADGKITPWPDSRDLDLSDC

Mus musculus = experiment: Inhibition of WIN-55212 induced hypothermia in Swiss albino mouse assessed as change temperature at 10 mg/kg, po administered 30 mins after WIN55212 challenge measured after 30 mins; type: functional; conditions: 0.5 h
[2] = target: Voltage-gated inwardly rectifying potassium channel KCNH2 (Homo sapiens, UniProt Q12809); experiment: Inhibition of human ERG expressed in HEK293 cells assessed as inhibition of potassium channel current after 5 mins by patch clamp assay; type: cell-based
Sequence of Voltage-gated inwardly rectifying potassium channel KCNH2 (Q12809 whole entry): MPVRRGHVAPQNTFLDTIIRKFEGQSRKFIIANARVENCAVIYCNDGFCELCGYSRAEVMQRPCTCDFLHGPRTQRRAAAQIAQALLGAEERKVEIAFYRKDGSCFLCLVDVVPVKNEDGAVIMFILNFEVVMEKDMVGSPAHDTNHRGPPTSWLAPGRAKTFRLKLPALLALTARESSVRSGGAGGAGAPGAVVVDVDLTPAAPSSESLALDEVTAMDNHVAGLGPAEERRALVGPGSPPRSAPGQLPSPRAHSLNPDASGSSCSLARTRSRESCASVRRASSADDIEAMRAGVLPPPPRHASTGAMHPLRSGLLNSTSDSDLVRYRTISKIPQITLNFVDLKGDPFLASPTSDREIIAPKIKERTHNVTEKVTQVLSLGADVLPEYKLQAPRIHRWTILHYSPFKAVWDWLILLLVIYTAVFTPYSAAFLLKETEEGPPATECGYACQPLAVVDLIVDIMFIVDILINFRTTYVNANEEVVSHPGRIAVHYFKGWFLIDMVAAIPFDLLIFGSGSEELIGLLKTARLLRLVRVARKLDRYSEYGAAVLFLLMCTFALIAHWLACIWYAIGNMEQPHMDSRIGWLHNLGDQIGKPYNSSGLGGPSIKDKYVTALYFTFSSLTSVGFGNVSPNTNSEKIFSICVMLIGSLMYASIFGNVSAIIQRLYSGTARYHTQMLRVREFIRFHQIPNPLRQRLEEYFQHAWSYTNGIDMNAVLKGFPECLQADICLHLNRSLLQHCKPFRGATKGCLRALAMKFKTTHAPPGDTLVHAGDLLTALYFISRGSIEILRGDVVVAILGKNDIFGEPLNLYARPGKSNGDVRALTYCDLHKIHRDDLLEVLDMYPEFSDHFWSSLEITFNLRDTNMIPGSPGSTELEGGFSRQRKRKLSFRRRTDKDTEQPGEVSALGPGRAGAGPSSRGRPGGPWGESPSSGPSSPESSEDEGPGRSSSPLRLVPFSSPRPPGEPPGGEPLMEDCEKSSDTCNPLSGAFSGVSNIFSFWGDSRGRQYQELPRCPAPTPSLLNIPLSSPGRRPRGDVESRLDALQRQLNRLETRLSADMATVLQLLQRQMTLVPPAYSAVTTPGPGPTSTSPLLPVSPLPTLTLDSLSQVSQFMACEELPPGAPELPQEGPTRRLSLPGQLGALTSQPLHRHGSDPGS

hERG (KCNH2) [3] = target: T1, hERG (KCNH2) (Homo sapiens, UniProt Q12809); experiment: Inhibition of human ERG expressed in HEK293 cells assessed as inhibition of potassium channel current at 30 uM after 5 mins by patch clamp assay; type: cell-based; conditions: HEK293 cells expressing human ERG
T1 sequence (Q12809 whole entry): as above

[4] = target: Cannabinoid receptor 1 (Rattus norvegicus) (UniProt P20272); experiment: Displacement of [3H]SR141716A from rat brain CB1 receptor at 1 uM at pH 7.4 after 1 hr by liquid scintillation counting
Sequence of Cannabinoid receptor 1 (Rattus norvegicus) (P20272 whole entry): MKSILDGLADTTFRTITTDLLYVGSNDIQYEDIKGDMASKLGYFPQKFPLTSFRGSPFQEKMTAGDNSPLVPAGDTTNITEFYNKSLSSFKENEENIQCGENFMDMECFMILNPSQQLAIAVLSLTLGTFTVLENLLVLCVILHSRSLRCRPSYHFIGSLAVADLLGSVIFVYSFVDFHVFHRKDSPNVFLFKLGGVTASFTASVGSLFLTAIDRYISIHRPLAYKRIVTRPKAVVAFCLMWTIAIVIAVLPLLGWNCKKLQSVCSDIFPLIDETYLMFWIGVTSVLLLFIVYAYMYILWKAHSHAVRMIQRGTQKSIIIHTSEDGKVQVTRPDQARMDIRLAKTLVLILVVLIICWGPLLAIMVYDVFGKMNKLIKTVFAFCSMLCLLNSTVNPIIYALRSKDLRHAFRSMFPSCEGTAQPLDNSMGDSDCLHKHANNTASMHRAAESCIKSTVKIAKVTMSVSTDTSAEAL

[5] = target: Cannabinoid receptor 1 (Rattus norvegicus) (UniProt P20272); experiment: Displacement of [3H]SR141716A from rat brain CB1 receptor at 100 nM at pH 7.4 after 1 hr by liquid scintillation counting
hERG (KCNH2) [6] = target: T1, hERG (KCNH2); experiment: Inhibition of human ERG expressed in HEK293 cells assessed as inhibition of potassium channel current at 10 uM after 5 mins by patch clamp assay; type: cell-based; conditions: HEK293 cells expressing human ERG

Sequence of Cannabinoid receptor 1 (P20272 whole entry): as above

SMILES: Cc1csc(C(C)(C)NC(=O)c2nn(-c3ccc(Cl)cc3Cl)c(-c3ccc(Cl)cc3)c2C)n1
- IC50 (Cannabinoid receptor 1): 15 nM

SMILES: Cc1c(C(=O)NC(C)(C)c2cn3cc(C(F)(F)F)ccc3n2)nn(-c2ccc(Cl)cc2Cl)c1-c1ccc(Cl)cc1
- IC50 (Cannabinoid receptor 1): 63 nM

SMILES: CCc1c(C(=O)NC(C)(C)c2nnnn2C)nc(-c2ccc(Cl)cc2Cl)n1-c1ccc(Cl)cc1
- IC50 (Cannabinoid receptor 1): 36 nM

SMILES: CC(C)(NC(=O)c1nn(-c2ccc(Cl)cc2Cl)c(-c2ccc(Cl)cc2)c1CO)c1noc(C(F)(F)F)n1
- inhibition [1]: 34%
- IC50 (Cannabinoid receptor 1): 0.4 nM
- inhibition in vivo at 10 mg/kg (Mus musculus): 97%
- IC50 [2]: > 30000 nM
- inhibition at 5 min, 30 µM (hERG (KCNH2) [3]): 38.9%

SMILES: COCc1c(C(=O)NC(C)(C)c2noc(C(F)(F)F)n2)nn(-c2ccc(Cl)cc2Cl)c1-c1ccc(Cl)cc1
- IC50 (Cannabinoid receptor 1): 4 nM

SMILES: Cc1c(C(=O)NC(C)(C)c2nc(C(F)(F)F)cs2)nn(-c2ccc(Cl)cc2Cl)c1-c1ccc(Cl)cc1
- IC50 (Cannabinoid receptor 1): 2 nM

SMILES: CCc1c(C(=O)NC(C)(C)c2nnnn2C)nn(-c2ccc(Cl)cc2Cl)c1-c1ccc(C(=O)O)cc1
- inhibition [4]: 50%

SMILES: CCc1c(C(=O)NC(C)(C)c2nnnn2C)nn(-c2ccc(Cl)cc2Cl)c1-c1ccc(C#N)cc1
- IC50 (Cannabinoid receptor 1): 22 nM

SMILES: Cc1c(C(=O)NC(C)(C)c2nnn(C)n2)nn(-c2ccc(Cl)cc2Cl)c1-c1ccc(Cl)cc1
- IC50 (Cannabinoid receptor 1): 88 nM

SMILES: CCCS(=O)(=O)Oc1ccc(-c2c(C)c(C(=O)NC(C)(C)c3nnnn3C)nn2-c2ccc(Cl)cc2Cl)cc1
- IC50 (Cannabinoid receptor 1): 1.1 nM

SMILES: O=C(NC1(c2noc(C(F)(F)F)n2)CC1)c1nn(-c2ccc(Cl)cc2Cl)c(-c2ccc(Cl)cc2)c1C(=O)O
- inhibition [5]: 44%
- inhibition [4]: 66%

SMILES: CCc1c(C(=O)NC(C)(C)c2nnnn2C)nn(-c2ccc(Cl)cc2Cl)c1-c1ccc(OC)cc1
- IC50 (Cannabinoid receptor 1): 5 nM

SMILES: CCOC(=O)c1ccc(-c2c(CC)c(C(=O)NC(C)(C)c3nnnn3C)nn2-c2ccc(Cl)cc2Cl)cc1
- IC50 (Cannabinoid receptor 1): 17 nM

SMILES: Cc1c(C(=O)NC(C)(C)c2cn3ccsc3n2)nn(-c2ccc(Cl)cc2Cl)c1-c1ccc(Cl)cc1
- IC50 (Cannabinoid receptor 1): 11 nM

SMILES: Cc1c(C(=O)NC2(c3noc(C(F)(F)F)n3)CCC2)nn(-c2ccc(Cl)cc2Cl)c1-c1ccc(Cl)cc1
- IC50 (Cannabinoid receptor 1): 0.8 nM

SMILES: Cc1c(C(=O)NC(C)(C)c2nnc(C(F)(F)F)o2)nn(-c2ccc(Cl)cc2Cl)c1-c1ccc(Cl)cc1
- inhibition [1]: 64%
- IC50 (Cannabinoid receptor 1): 6 nM
- inhibition in vivo at 10 mg/kg (Mus musculus): 97%

SMILES: CCc1c(C(=O)NC(C)(C)c2nnnn2C)nn(-c2ccc(Cl)cc2Cl)c1-c1ccc(Br)cc1
- inhibition [1]: 27%
- IC50 (Cannabinoid receptor 1): 0.1 nM
- inhibition in vivo at 10 mg/kg (Mus musculus): 83%
- IC50 [2]: 22700 nM

SMILES: CCc1c(C(=O)NC(C)(C)c2nnnn2C)nn(-c2ccc(Cl)cc2Cl)c1-c1ccc(Cl)cc1
- inhibition [1]: 16%
- IC50 (Cannabinoid receptor 1): 0.5 nM
- inhibition in vivo at 10 mg/kg (Mus musculus): 96%
- inhibition at 5 min, 10 µM (hERG (KCNH2) [6]): 59.7%

SMILES: C[C@H](NC(=O)C(C)(C)Oc1ccc(C(F)(F)F)cn1)[C@@H](Cc1ccc(Cl)cc1)c1cccc(C#N)c1 [TARANABANT]
- IC50 (Cannabinoid receptor 1): 0.3 nM

SMILES: Cc1c(C(=O)NC(C)(C)c2cn3cccnc3n2)nn(-c2ccc(Cl)cc2Cl)c1-c1ccc(Cl)cc1
- IC50 (Cannabinoid receptor 1): 121 nM

SMILES: CCc1c(C(=O)NC(C)(C)c2nnnn2C)nn(-c2ccc(Cl)cc2Cl)c1-c1ccc(OCC(=O)O)cc1
- inhibition [4]: 25%
- IC50 (Cannabinoid receptor 1): > 1000 nM

SMILES: CCOC(=O)Cc1csc(C(C)(C)NC(=O)c2nn(-c3ccc(Cl)cc3Cl)c(-c3ccc(Cl)cc3)c2C)n1
- IC50 (Cannabinoid receptor 1): 10 nM
